Values of other authors, collected in patent US20040023897A1, “Methods for preventing or treating disease mediated by toxin-secreting bacteria” (priority 2001, published 2004).

Key:
[1] = system: V-ATPases
[2] = system: V-ATPases; remark: listed apart in the source

| SMILES | concentration at which reversible inhibition of proton translocation occurs [1] | also measured |
| --- | --- | --- |
| CO/C1=C\C(C)=C\[C@@H](C)[C@@H](O)[C@@H](C)C/C(C)=C/C=C/[C@H](OC)[C@@H]([C@@H](C)[C@@H](O)[C@H](C)[C@@]2(O)C[C@@H](O)[C@H](C)[C@@H](C(C)C)O2)OC1=O [Bafilomycin A1] | sub-micromolar concentrations |  |
| C(=NC1CCCCC1)=NC1CCCCC1 [DCCD, N,N′-dicyclohexylcarbodiimide] |  | inhibition of proton pumping ([1]; micromolar concentrations of DCCD): complete and irreversible inhibition |
| CCN1C(=O)C=CC1=O [N-ethylmaleimide] |  | concentration at which inhibition of ATP hydrolysis occurs [2]: low micromolar concentrations |
| C/C=C/[C@H]1O[C@@](O)([C@@H](C)[C@H](O)[C@H](C)[C@H]2OC(=O)/C(OC)=C/C(C)=C/[C@@H](C)[C@@H](O)[C@@H](CC)[C@@H](O)[C@H](C)C/C(C)=C/C=C/[C@@H]2OC)C[C@@H](O[C@H]2C[C@@H](O)[C@H](OC(N)=O)[C@@H](C)O2)[C@@H]1C [concanamycin A] | sub-micromolar concentrations |  |
